Experiments:
chickweed [1] = experiment: Test Example 4: herbicidal effect by soil treatment (Table 19, symbol P); assay type: in vivo, common chickweed (Stellaria media); settings: amount of applied herbicide 320 g/ha
Procedure, shortened: (§1)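 Step 1: sow seeds in sterilized diluvial soil, cover ~1.5 cm. Step 2: spray diluted emulsion onto soil surface at predetermined rate. Step 3: greenhouse, 25–30° C, three weeks. Step 4: grade effect on each plant by earlier criteria.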

wild oat [2] = experiment: Test Example 5: herbicidal effect by foliage application, plastic box (Table 20, symbol I); assay type: in vivo, wild oat (Avena fatua); settings: 320 g/ha, foliage application after 14-day growth, evaluated three weeks after application
Procedure, shortened: (§2)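 Foliar spray test: emulsion formulation diluted in water to a set application rate, sprayed onto 14-day-old plants raised in diluvial soil at 25° C to 30° C under glass. Both herbicidal effect and crop effect rated visually three weeks later.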

southern crabgrass [3] = experiment: Test Example 5: herbicidal effect by foliage application, plastic box (Table 20, symbol F); assay type: in vivo, southern crabgrass (Digitaria ciliaris); settings: 320 g/ha, foliage application after 14-day growth, evaluated three weeks after application
Procedure, shortened: as §2

Italian ryegrass [4] = experiment: Test Example 5: herbicidal effect by foliage application, plastic box (Table 20, symbol K); assay type: in vivo, Italian ryegrass (Lolium multiflorum); settings: 320 g/ha, foliage application after 14-day growth, evaluated three weeks after application
Procedure, shortened: as §2

green foxtail [5] = experiment: Test Example 4: herbicidal effect by soil treatment (Table 19, symbol G); assay type: in vivo, green foxtail (Setaria viridis); settings: amount of applied herbicide 320 g/ha
Procedure, shortened: as §1

southern crabgrass [6] = experiment: Test Example 4: herbicidal effect by soil treatment (Table 19, symbol F); assay type: in vivo, southern crabgrass (Digitaria ciliaris); settings: amount of applied herbicide 320 g/ha
Procedure, shortened: as §1

velvetleaf [7] = experiment: Test Example 4: herbicidal effect by soil treatment (Table 19, symbol M); assay type: in vivo, velvetleaf (Abutilon theophrasti); settings: amount of applied herbicide 320 g/ha
Procedure, shortened: as §1

velvetleaf [8] = experiment: Test Example 5: herbicidal effect by foliage application, plastic box (Table 20, symbol M); assay type: in vivo, velvetleaf (Abutilon theophrasti); settings: 320 g/ha, foliage application after 14-day growth, evaluated three weeks after application
Procedure, shortened: as §2

redroot pigweed [9] = experiment: Test Example 5: herbicidal effect by foliage application, plastic box (Table 20, symbol N); assay type: in vivo, redroot pigweed (Amaranthus retroflexus); settings: 320 g/ha, foliage application after 14-day growth, evaluated three weeks after application
Procedure, shortened: as §2

persian speedwell [10] = experiment: Test Example 4: herbicidal effect by soil treatment (Table 19, symbol R); assay type: in vivo, Persian speedwell (Veronica persica); settings: amount of applied herbicide 320 g/ha
Procedure, shortened: as §1

barnyard grass [11] = experiment: Test Example 5: herbicidal effect by foliage application, plastic box (Table 20, symbol H); assay type: in vivo, barnyard grass (Echinochloa crus-galli); settings: 320 g/ha, foliage application after 14-day growth, evaluated three weeks after application
Procedure, shortened: as §2

green foxtail [12] = experiment: Test Example 5: herbicidal effect by foliage application, plastic box (Table 20, symbol G); assay type: in vivo, green foxtail (Setaria viridis); settings: 320 g/ha, foliage application after 14-day growth, evaluated three weeks after application
Procedure, shortened: as §2

windgrass [13] = experiment: Test Example 5: herbicidal effect by foliage application, plastic box (Table 20, symbol L); assay type: in vivo, windgrass (Apera spica-venti); settings: 320 g/ha, foliage application after 14-day growth, evaluated three weeks after application
Procedure, shortened: as §2

barnyard grass [14] = experiment: Test Example 4: herbicidal effect by soil treatment (Table 19, symbol H); assay type: in vivo, barnyard grass (Echinochloa crus-galli); settings: amount of applied herbicide 320 g/ha
Procedure, shortened: as §1

redroot pigweed [15] = experiment: Test Example 4: herbicidal effect by soil treatment (Table 19, symbol N); assay type: in vivo, redroot pigweed (Amaranthus retroflexus); settings: amount of applied herbicide 320 g/ha
Procedure, shortened: as §1

false cleavers = experiment: Test Example 4: herbicidal effect by soil treatment (Table 19, symbol Q); assay type: in vivo, false cleavers (Galium spurium); settings: amount of applied herbicide 320 g/ha
Procedure, shortened: as §1

blackgrass [16] = experiment: Test Example 5: herbicidal effect by foliage application, plastic box (Table 20, symbol J); assay type: in vivo, blackgrass (Alopecurus myosuroides); settings: 320 g/ha, foliage application after 14-day growth, evaluated three weeks after application
Procedure, shortened: as §2

Chinese sprangletop = experiment: Test Example 3: herbicidal effect by foliage application, Wagner pot (Table 18, symbol D); assay type: in vivo, chinese sprangletop (Leptochloa chinensis); settings: 320 g/ha
Procedure, shortened: (§3)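 Plants were sown in alluvial soil held under 0.1–0.5 cm standing water and grown 14 days in a greenhouse at 25–30 °C. An emulsifiable formulation, water-diluted to the set dose, was then sprayed onto the foliage, and effects were scored three weeks later using previously defined criteria.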

Italian ryegrass [17] = experiment: Test Example 4: herbicidal effect by soil treatment (Table 19, symbol K); assay type: in vivo, Italian ryegrass (Lolium multiflorum); settings: amount of applied herbicide 320 g/ha
Procedure, shortened: as §1

lambsquarters [18] = experiment: Test Example 4: herbicidal effect by soil treatment (Table 19, symbol O); assay type: in vivo, lambsquarters (Chenopodium album); settings: amount of applied herbicide 320 g/ha
Procedure, shortened: as §1

barnyard grass [19] = experiment: Test Example 3: herbicidal effect by foliage application, Wagner pot (Table 18, symbol H); assay type: in vivo, barnyard grass (Echinochloa crus-galli); settings: 320 g/ha
Procedure, shortened: as §3

persian speedwell [20] = experiment: Test Example 5: herbicidal effect by foliage application, plastic box (Table 20, symbol R); assay type: in vivo, Persian speedwell (Veronica persica); settings: 320 g/ha, foliage application after 14-day growth, evaluated three weeks after application
Procedure, shortened: as §2

rice flat sedge = experiment: Test Example 3: herbicidal effect by foliage application, Wagner pot (Table 18, symbol E); assay type: in vivo, rice flat sedge (Cyperus iria); settings: 320 g/ha
Procedure, shortened: as §3

blackgrass [21] = experiment: Test Example 4: herbicidal effect by soil treatment (Table 19, symbol J); assay type: in vivo, blackgrass (Alopecurus myosuroides); settings: amount of applied herbicide 320 g/ha
Procedure, shortened: as §1

wild oat [22] = experiment: Test Example 4: herbicidal effect by soil treatment (Table 19, symbol I); assay type: in vivo, wild oat (Avena fatua); settings: amount of applied herbicide 320 g/ha
Procedure, shortened: as §1

windgrass [23] = experiment: Test Example 4: herbicidal effect by soil treatment (Table 19, symbol L); assay type: in vivo, windgrass (Apera spica-venti); settings: amount of applied herbicide 320 g/ha
Procedure, shortened: as §1

lambsquarters [24] = experiment: Test Example 5: herbicidal effect by foliage application, plastic box (Table 20, symbol O); assay type: in vivo, lambsquarters (Chenopodium album); settings: 320 g/ha, foliage application after 14-day growth, evaluated three weeks after application
Procedure, shortened: as §2

chickweed [25] = experiment: Test Example 5: herbicidal effect by foliage application, plastic box (Table 20, symbol P); assay type: in vivo, common chickweed (Stellaria media); settings: 320 g/ha, foliage application after 14-day growth, evaluated three weeks after application
Procedure, shortened: as §2

Cc1nn(C)c(=O)c(-c2c(-c3ccc(C#N)cc3)sc3c(F)cccc23)c1O [4-052]
Herbicidal effect by soil treatment, P: chickweed (chickweed [1]): 3 (Herbicidal rate of 40% or more and less than 70%)
herbicidal effect on I: wild oat (evaluation grade 0-5) (wild oat [2]): 0 (Herbicidal rate of 5% or less (almost no effect))
herbicidal effect on F: southern crabgrass (evaluation grade 0-5) (southern crabgrass [3]): 0 (Herbicidal rate of 5% or less (almost no effect))
herbicidal effect on K: Italian ryegrass (evaluation grade 0-5) (Italian ryegrass [4]): 3 (Herbicidal rate of 40% or more and less than 70%)
Herbicidal effect by soil treatment, G: green foxtail (green foxtail [5]): 0 (Herbicidal rate of 5% or less (almost no effect))
Herbicidal effect by soil treatment, F: southern crabgrass (southern crabgrass [6]): 0 (Herbicidal rate of 5% or less (almost no effect))
Herbicidal effect by soil treatment, M: velvetleaf (velvetleaf [7]): 1 (Herbicidal rate of 5% or more and less than 20%)
herbicidal effect on M: velvetleaf (evaluation grade 0-5) (velvetleaf [8]): 5 (Herbicidal rate of 90% or more (almost completely withered))
herbicidal effect on N: redroot pigweed (evaluation grade 0-5) (redroot pigweed [9]): 5 (Herbicidal rate of 90% or more (almost completely withered))
Herbicidal effect by soil treatment, R: persian speedwell (persian speedwell [10]): 4 (Herbicidal rate of 70% or more and less than 90%)
herbicidal effect on H: barnyard grass (evaluation grade 0-5) (barnyard grass [11]): 5 (Herbicidal rate of 90% or more (almost completely withered))
herbicidal effect on G: green foxtail (evaluation grade 0-5) (green foxtail [12]): 5 (Herbicidal rate of 90% or more (almost completely withered))
herbicidal effect on L: windgrass (evaluation grade 0-5) (windgrass [13]): 0 (Herbicidal rate of 5% or less (almost no effect))
Herbicidal effect by soil treatment, H: barnyard grass (barnyard grass [14]): 0 (Herbicidal rate of 5% or less (almost no effect))
Herbicidal effect by soil treatment, N: redroot pigweed (redroot pigweed [15]): 4 (Herbicidal rate of 70% or more and less than 90%)
Herbicidal effect by soil treatment, Q: false cleavers (false cleavers): 0 (Herbicidal rate of 5% or less (almost no effect))
herbicidal effect on J: blackgrass (evaluation grade 0-5) (blackgrass [16]): 0 (Herbicidal rate of 5% or less (almost no effect))
herbicidal effect on Chinese sprangletop (D) (Chinese sprangletop): 3 (Herbicidal rate of 40% or more and less than 70%)
Herbicidal effect by soil treatment, K: Italian ryegrass (Italian ryegrass [17]): 0 (Herbicidal rate of 5% or less (almost no effect))
Herbicidal effect by soil treatment, O: lambsquarters (lambsquarters [18]): 2 (Herbicidal rate of 20% or more and less than 40%)
herbicidal effect on barnyard grass (H) (barnyard grass [19]): 5 (Herbicidal rate of 90% or more (almost completely withered))
herbicidal effect on R: persian speedwell (evaluation grade 0-5) (persian speedwell [20]): 5 (Herbicidal rate of 90% or more (almost completely withered))
herbicidal effect on rice flat sedge (E) (rice flat sedge): 4 (Herbicidal rate of 70% or more and less than 90%)
Herbicidal effect by soil treatment, J: blackgrass (blackgrass [21]): 0 (Herbicidal rate of 5% or less (almost no effect))
Herbicidal effect by soil treatment, I: wild oat (wild oat [22]): 0 (Herbicidal rate of 5% or less (almost no effect))
Herbicidal effect by soil treatment, L: windgrass (windgrass [23]): 0 (Herbicidal rate of 5% or less (almost no effect))
herbicidal effect on O: lambsquarters (evaluation grade 0-5) (lambsquarters [24]): 4 (Herbicidal rate of 70% or more and less than 90%)
herbicidal effect on P: chickweed (evaluation grade 0-5) (chickweed [25]): 5 (Herbicidal rate of 90% or more (almost completely withered))

Source: patent publication US20230085307A1, “PYRIDAZINONE COMPOUND AND HERBICIDE” (NISSAN CHEMICAL CORPORATION, priority 2019, published 2023)
